According to patent publication US20130011845A1, “MICRORNA REGULATING THE INSULIN SIGNALING PATHWAY, AND METHOD FOR SCREENING MATERIAL FOR CONTROLLING THE ACTION OF A TARGET THEREOF” (SNU R & DB Foundation, priority 2009, published 2013):
d = 2'-deoxy (DNA); r = 2'-OH (RNA)

Tests used:
FOXO [1] = test: FOXO activity in Huh7 cell lines transfected with miR-200 and treated with kinase inhibitors; assay type: cell-based, human; settings: Huh7 cell lines transfected with miR-141/200a or miR-200b/c/429, inhibitor at 10 μM
FOG2 3′UTR = test: dual-luciferase 3′UTR reporter assay, pAC-FOG2; assay type: cell-based; settings: luciferase reporter with FOG2 3′UTR, human Hela cell lines; average of at least two independent experiments
Protocol: (§1) In order to determine whether the target genes identified in Example 7 are in actuality targets of miR-8 and miR-200 family miRNAs, the inventors performed cloning. In other words, […] containing the miRNA target sites. Specifically, in order to obtain cDNAs of respective target genes, from drosophila S2 cell lines or human Hela cell lines, total RNA was extracted by using RNeasy mini kit (QIAGEN, US). 1 μg of total RNA and 1 μl of Oligo-dT (Invitrogen, US) were charged with up to 50 μl of distilled water, and placed into SuperScript First-Strand Synthesis System (Invitrogen, US), followed by RT-PCR reaction. Through the reaction at 65° C. for 6 min, at 4° C. for 5 min, at 42° C. for 60 min, at 95° C. for 5 min, and at 4° C. for 5 min, cDNA was synthesized. By using the cDNA (3˜5 μg) as template, and using a primer pair on respective genes noted in Table 3 and PCR Mastermix (Promega, US), PCR was performed on 3′UTR of ush, Lap1, CG8445, dbo, Lar, Ced-12, CG12333, cbt, FOG2, SEPT7, RIN2, SHC1, HOXB5, LF11, TCF7L1, ERBB21P, ELMO2, BAP1, WDR37, KLHL20, PTPRD, RASSF2 and VAC14 from among the target genes selected in Example 7. Herein, PCRP on atro as a drosophila control gene was also performed. After the reaction was completed, the PCR product on each gene's 3′UTR region was cleaved by each of the following restriction enzymes:
(§2) Then, it was cloned into pAC5.1 luciferase vector (a kind gift of Elisa Izaurralde) cleaved by the same restriction enzymes so as to produce a reporter plasmid having a miR-8 or miR-200 family target sequence in luciferase gene's 3′UTR sequence.
(§3) Reporter plasmids and renilla luciferase expression vectors (Promega, US), as noted in Table 4, and miRNAs of miR-200 family of miR-141, miR-200a (hsa-miR-200a, SEQ ID: 87: 5′-[…]-3′), miR-200b, miR-200c (has-miR-200c, SEQ ID: 88: 5′-[…]-3′) and miR-429, and miR-8 (dme-miR-8, SEQ ID: 89: 5′-[…]-3′) were bought from Samchonri and cotransfected into drosophila S2 cell lines or human Hela cell lines. Then, the activities of luciferase were measured through dual-luciferase assay (Promega, US) by a luminometer (Biorad). Then, 7 gene pairs that respond both to miR-8 and to mir-200 family miRNAs in Drosophila and human cells, respectively were identified (see FIG. 15).

ERBB2IP 3′UTR = test: dual-luciferase 3′UTR reporter assay, pAC-ERBB2IP; assay type: cell-based; settings: luciferase reporter with ERBB2IP 3′UTR, human Hela cell lines; average of at least two independent experiments
Protocol: as §1, §2, §3

BAP1 3′UTR = test: dual-luciferase 3′UTR reporter assay, pAC-BAP1; assay type: cell-based; settings: luciferase reporter with BAP1 3′UTR, human Hela cell lines; average of at least two independent experiments
Protocol: as §1, §2, §3

KLHL20 3′UTR = test: dual-luciferase 3′UTR reporter assay, pAC-KLHL20; assay type: cell-based; settings: luciferase reporter with KLHL20 3′UTR, human Hela cell lines; average of at least two independent experiments
Protocol: as §1, §2, §3

PTPRD 3′UTR = test: dual-luciferase 3′UTR reporter assay, pAC-PTPRD; assay type: cell-based; settings: luciferase reporter with PTPRD 3′UTR, human Hela cell lines; average of at least two independent experiments
Protocol: as §1, §2, §3

ELMO2 3′UTR = test: dual-luciferase 3′UTR reporter assay, pAC-ELMO2; assay type: cell-based; settings: luciferase reporter with ELMO2 3′UTR, human Hela cell lines; average of at least two independent experiments
Protocol: as §1, §2, §3

WDR37 3′UTR = test: dual-luciferase 3′UTR reporter assay, pAC-WDR37; assay type: cell-based; settings: luciferase reporter with WDR37 3′UTR, human Hela cell lines; average of at least two independent experiments
Protocol: as §1, §2, §3

KLF11 3′UTR = test: dual-luciferase 3′UTR reporter assay, pAC-KLF11; assay type: cell-based; settings: luciferase reporter with KLF11 3′UTR, human Hela cell lines; average of at least two independent experiments
Protocol: as §1, §2, §3

HOXB5 3′UTR = test: dual-luciferase 3′UTR reporter assay, pAC-HOXB5; assay type: cell-based; settings: luciferase reporter with HOXB5 3′UTR, human Hela cell lines; average of at least two independent experiments
Protocol: as §1, §2, §3

TCF7L1 3′UTR = test: dual-luciferase 3′UTR reporter assay, pAC-TCF7L1; assay type: cell-based; settings: luciferase reporter with TCF7L1 3′UTR, human Hela cell lines; average of at least two independent experiments
Protocol: as §1, §2, §3

SEPT7 3′UTR = test: dual-luciferase 3′UTR reporter assay, pAC-SEPT7; assay type: cell-based; settings: luciferase reporter with SEPT7 3′UTR, human Hela cell lines; average of at least two independent experiments
Protocol: as §1, §2, §3

RIN2 3′UTR = test: dual-luciferase 3′UTR reporter assay, pAC-RIN2; assay type: cell-based; settings: luciferase reporter with RIN2 3′UTR, human Hela cell lines; average of at least two independent experiments
Protocol: as §1, §2, §3

SHC1 3′UTR = test: dual-luciferase 3′UTR reporter assay, pAC-SHC1; assay type: cell-based; settings: luciferase reporter with SHC1 3′UTR, human Hela cell lines; average of at least two independent experiments
Protocol: as §1, §2, §3

RASSF2 3′UTR = test: dual-luciferase 3′UTR reporter assay, pAC-RASSF2; assay type: cell-based; settings: luciferase reporter with RASSF2 3′UTR, human Hela cell lines; average of at least two independent experiments
Protocol: as §1, §2, §3

VAC14 3′UTR = test: dual-luciferase 3′UTR reporter assay, pAC-VAC14; assay type: cell-based; settings: luciferase reporter with VAC14 3′UTR, human Hela cell lines; average of at least two independent experiments
Protocol: as §1, §2, §3

FOXO [2] = test: FOXO luciferase reporter (pFK1tk-luc) assay in Hep3B cells; assay type: cell-based, human
Excerpt: The inventors analyzed the effect of miR-200 miRNAs on the downstream transducers of Akt (see FIGS. 44 to 47). Because Akt represses FOXO activity, the inventors used a luciferase reporter plasmid (pFK1tk-luc) (Biggs, W H et al., 1999, Proc Natl Acad Sci USA 96, 7421-7426) containing eight FOXO-binding sites to determine the level of FOXO activity in cultured cells. Specifically, Hep3B cells were transfected with synthesized siGFP, miR-141, miR-200a, miR-200b, miR-200c, miR-429 or siFOG2 together with pFK1tk-luc vector, and then luciferase activity was measured in the same manner as described Example 8-2. Also, Hep3B cells were transfected with luciferase, or oligonucleotides having complementary sequence to miR-141, miR-200a, miR-200b, miR-200c or miR-429 together with pFK1tk-luc vector. Then, the luciferase activity was measured in the same manner as described above. Further, Hep3B cell lines were transfected with pCK-flag (empty vector) and pCK-FOG2 produced in Example 16-1, and the luciferase activity was measured in the same manner as described above. […] Further, treating the cells with miR-200 inhibitors elevated FOXO activity (see FIG. 46).

Hep3B cells = test: MTT cellular viability assay; assay type: cell-based, human; settings: Hep3B cells transfected with 30 nM
Protocol: Because stimulation of PI3K and Akt is known to facilitate cell proliferation and antagonize apoptosis (Pollak, 2008), the inventors measured cellular viability with the MTT (3-(4,5-dimethylthiazol-2-yl)-2,5-diphenyltetrazolium bromide) assay in Hep3B cells. Specifically, Hep3B cells were plated in a 96-well plate, and transfected with 30 nM of synthesized siGFP, miR-141, miR-200a, miR-200b, miR-200c, miR-429 or siFOG2. Then, to the plate, 50 μl of MTT solution (2 mg/ml) (Promega, US) was added per each well, followed by culturing at 37 °C for 1 hour. Then, each well was added with 150 μl of DMSO, and measured by a microplate reader (Bio-rad, US) at a wavelength of 590 nm. Also, Hep3B cells were transfected with 200 nM of luciferase, or 200 nM of oligonucleotides having complementary sequences to miR-141, miR-200a, miR-200b, miR-200c or miR-429, and then were subjected to MTT assay in the same manner as described above.

Akt = test: western blotting of p-Akt in FAO cell lines; assay type: cell-based; settings: compared to siGFP
p85α = biological target: T1, p85α (Homo sapiens, UniProt P27986); test: in vitro binding assay with GST-fused recombinant p85α; settings: purified GST-fused recombinant p85α protein
T1 construct: GST (N); made in house; host or cells: E. coli BL21
T1 sequence (P27986 whole entry, the tested form may be a part): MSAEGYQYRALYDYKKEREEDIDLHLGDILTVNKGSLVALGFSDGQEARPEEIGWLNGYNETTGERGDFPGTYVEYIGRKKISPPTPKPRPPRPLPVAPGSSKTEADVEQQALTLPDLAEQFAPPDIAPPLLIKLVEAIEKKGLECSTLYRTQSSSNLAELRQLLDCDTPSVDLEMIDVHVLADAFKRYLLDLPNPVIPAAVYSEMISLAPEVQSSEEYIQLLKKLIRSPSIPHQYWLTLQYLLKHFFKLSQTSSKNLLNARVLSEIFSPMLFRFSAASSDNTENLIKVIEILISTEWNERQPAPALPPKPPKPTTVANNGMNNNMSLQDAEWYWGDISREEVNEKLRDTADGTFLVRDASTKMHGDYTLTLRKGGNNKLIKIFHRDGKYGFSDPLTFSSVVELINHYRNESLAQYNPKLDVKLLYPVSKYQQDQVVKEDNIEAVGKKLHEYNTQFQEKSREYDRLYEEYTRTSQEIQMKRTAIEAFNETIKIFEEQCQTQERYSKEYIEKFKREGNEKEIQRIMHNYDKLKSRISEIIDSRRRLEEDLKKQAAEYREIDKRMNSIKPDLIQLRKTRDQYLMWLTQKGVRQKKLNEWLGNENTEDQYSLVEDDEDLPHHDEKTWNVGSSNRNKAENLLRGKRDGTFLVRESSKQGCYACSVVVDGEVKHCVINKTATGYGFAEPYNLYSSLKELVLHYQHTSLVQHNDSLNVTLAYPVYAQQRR
Excerpt: In order to test whether FOG2 directly binds to p85α, the inventors cleaved PCR product on p85α gene (obtained from Example 20-1) by BamHI and EcoRI, and cloned into pGEX5X-1 vector (GE Healthcare, US) cleaved by the same restriction enzymes so as to produce GST-fused recombinant p85α expression vector. The expression vector was transfected into BL21 (Promega, US) through electroporation, and according to a known method, the […] protein was expressed and purified from bacteria (Studier, F. W. et al., 1986, J. Mol. Biol. 189, 113-130), and was used in the following in vitro binding assay, along with purified GST-fused recombinant p85α protein.

PI3K = biological target: T2, PI3K (Homo sapiens, UniProt P27986); test: in vitro PI3K assay on immunoprecipitated PI3K complex; assay type: biochemical; settings: recombinant protein added to the immunoprecipitated PI3K complex
T2 construct: endogenous in cells; host or cells: Hep3B cell lysate (method paragraph)
T2 sequence (P27986 whole entry): as the sequence (P27986 whole entry, the tested form may be a part) above

For `N#CC(=C(/N)Sc1ccccc1N)/C(C#N)=C(\N)Sc1ccccc1N` [U0126], the “miR-200-mediated FOXO regulation (FOXO activity)” value (FOXO [1]) was “did not affect miR-200-mediated FOXO regulation”.

“5′-UAAUACUGCCGGGUAAUGAUGGA-3′ [miR-200c]” was tested, and the “Represion fold, FOG2” value (FOG2 3′UTR) was 0.32 fold, the “Represion fold, ERBB2IP” value (ERBB2IP 3′UTR) was 0.59 fold and the “Represion fold, BAP1” value (BAP1 3′UTR) was 0.74 fold. The “Represion fold, KLHL20” value (KLHL20 3′UTR) was 0.69 fold, the “Represion fold, PTPRD” value (PTPRD 3′UTR) was 0.97 fold and the “Represion fold, ELMO2” value (ELMO2 3′UTR) was 0.86 fold. For the same molecule, the “Represion fold, WDR37” value (WDR37 3′UTR) was 1.21 fold, the “Represion fold, KLF11” value (KLF11 3′UTR) was 1.07 fold and the “Represion fold, HOXB5” value (HOXB5 3′UTR) was 0.87 fold. For the same molecule, the “Represion fold, TCF7L1” value (TCF7L1 3′UTR) was 0.80 fold, the “Represion fold, SEPT7” value (SEPT7 3′UTR) was 1.29 fold and the “Represion fold, RIN2” value (RIN2 3′UTR) was 1.30 fold. The “Represion fold, SHC1” value (SHC1 3′UTR) was 1.85 fold, the “Represion fold, RASSF2” value (RASSF2 3′UTR) was 0.99 fold and the “Represion fold, VAC14” value (VAC14 3′UTR) was 1.20 fold. The “FOXO activity (activity of luciferase, pFK1tk-luc)” value (FOXO [2]) was “significantly repressed” and the “cell viability (MTT)” value (Hep3B cells) was “increased cell viability”.

In the case of `O=C1c2ccccc2-c2n[nH]c3cccc1c23` [SB600125], the “miR-200-mediated FOXO regulation (FOXO activity)” value (FOXO [1]) is reported as “did not affect miR-200-mediated FOXO regulation”.

In the case of “5′-UUAUUCAAGUCCAUCUUCCdTdT-3′ (UUAUUCAAGUCCAUCUUCCTT; siRNA; sugars from the 5' end r19 d2, backbone not given here) [siFOG2]”, the p-Akt levels (Akt) is reported as “increased p-Akt levels” and the “FOXO activity (activity of luciferase, pFK1tk-luc)” value (FOXO [2]) is reported as “significantly repressed”.

B1: recombinant FOG2 protein: recombinant FOG2 protein containing the middle region of FOG2 (413-789 aa), expressed and purified from bacteria (protein, UniProt Q8WW38 413-789, looked up, fragment)
chain: DLLTRSELPQSQKAMQTKDASSDTELDKCEKKTQLFLTNQRPEIQPTTNKQSFSYTKIKSEPSSPRLASSPVQPNIGPSFPVGPFLSQFSFPQDITMVPQASEILAKMSELVHRRLRHGSSSYPPVIYSPLMPKGATCFECNITFNNLDNYLVHKKHYCSSRWQQMAKSPEFPSVSEKMPEALSPNTGQTSINLLNPAAHSADPENPLLQTSCINSSTVLDLIGPNGKGHDKDFSTQTKKLSTSSNNDDKINGKPVDVKNPSVPLVDGESDPNKTTCEACNITFSRHETYMVHKQYYCATRHDPPLKRSASNKVPAMQRTMRTRKRRKMYEMCLPEQEQRPPLVQQRFLDVANLNNPCTSTQEPTEGLGECYHPRCD
With B1 the “binding to recombinant p85α” value (p85α) was “specifically bound to recombinant p85α” and the PI3K activity (PI3K) was “significantly inhibited the PI3K activity”.
